Key:
Test in all cases: two-electrode voltage clamp, Xenopus oocytes
Format in all cases: cell-based
[1] = biological target: T1, GluN1/GluN2B receptor (rat GluN1-1a, mouse GluN2B) (Rattus norvegicus; Mus musculus, UniProt P35439+Q01097)
T1 construct: gene Grin1; full-length receptors from pcDNA3-based plasmids, Xenopus laevis oocytes, cDNA ratio 1:1; heterotetramer, usually two GluN1 and two GluN2
Description: (§1) two-electrode voltage clamp, Xenopus oocytes on GluN1/GluN2B receptor (rat GluN1-1a, mouse GluN2B)

[2] = biological target: T2, GluN1/GluN2B receptor (rat GluN1-1a, mouse GluN2B) (Rattus norvegicus; Mus musculus, UniProt P35439+Q01097, P35439:L135H)
T2 construct: gene Grin1; full-length receptors from pcDNA3-based plasmids, Xenopus laevis oocytes, cDNA ratio 1:1; heterotetramer, usually two GluN1 and two GluN2
Description: as §1

[3] = biological target: T3, GluN1/GluN2B receptor (rat GluN1-1a, mouse GluN2B) (Rattus norvegicus; Mus musculus, UniProt P35439+Q01097, P35439:L135W)
T3 construct: gene Grin1; full-length receptors from pcDNA3-based plasmids, Xenopus laevis oocytes, cDNA ratio 1:1; heterotetramer, usually two GluN1 and two GluN2
Description: as §1

[4] = biological target: T4, GluN1/GluN2B receptor (rat GluN1-1a, mouse GluN2B) (Rattus norvegicus; Mus musculus, UniProt P35439+Q01097, P35439:Y109C)
T4 construct: gene Grin1; full-length receptors from pcDNA3-based plasmids, Xenopus laevis oocytes, cDNA ratio 1:1; heterotetramer, usually two GluN1 and two GluN2
Description: as §1

[5] = biological target: T5, GluN1/GluN2B receptor (rat GluN1-1a, mouse GluN2B) (Rattus norvegicus; Mus musculus, UniProt P35439+Q01097, P35439:Y109S)
T5 construct: gene Grin1; full-length receptors from pcDNA3-based plasmids, Xenopus laevis oocytes, cDNA ratio 1:1; heterotetramer, usually two GluN1 and two GluN2
Description: as §1

[6] = biological target: T6, GluN1/GluN2B receptor (rat GluN1-1a, mouse GluN2B) (Rattus norvegicus; Mus musculus, UniProt P35439+Q01097, Q01097:A135G)
T6 construct: gene Grin1; full-length receptors from pcDNA3-based plasmids, Xenopus laevis oocytes, cDNA ratio 1:1; heterotetramer, usually two GluN1 and two GluN2
Description: as §1

[7] = biological target: T7, GluN1/GluN2B receptor (rat GluN1-1a, mouse GluN2B) (Rattus norvegicus; Mus musculus, UniProt P35439+Q01097, Q01097:A135P)
T7 construct: gene Grin1; full-length receptors from pcDNA3-based plasmids, Xenopus laevis oocytes, cDNA ratio 1:1; heterotetramer, usually two GluN1 and two GluN2
Description: as §1

[8] = biological target: T8, GluN1/GluN2B receptor (rat GluN1-1a, mouse GluN2B) (Rattus norvegicus; Mus musculus, UniProt P35439+Q01097, Q01097:F114S)
T8 construct: gene Grin1; full-length receptors from pcDNA3-based plasmids, Xenopus laevis oocytes, cDNA ratio 1:1; heterotetramer, usually two GluN1 and two GluN2
Description: as §1

[9] = biological target: T9, GluN1/GluN2B receptor (rat GluN1-1a, mouse GluN2B) (Rattus norvegicus; Mus musculus, UniProt P35439+Q01097, Q01097:F176A)
T9 construct: gene Grin1; full-length receptors from pcDNA3-based plasmids, Xenopus laevis oocytes, cDNA ratio 1:1; heterotetramer, usually two GluN1 and two GluN2
Description: as §1

[10] = biological target: T10, GluN1/GluN2B receptor (rat GluN1-1a, mouse GluN2B) (Rattus norvegicus; Mus musculus, UniProt P35439+Q01097, Q01097:P177C)
T10 construct: gene Grin1; full-length receptors from pcDNA3-based plasmids, Xenopus laevis oocytes, cDNA ratio 1:1; heterotetramer, usually two GluN1 and two GluN2
Description: as §1

[11] = biological target: T11, GluN1/GluN2B receptor (rat GluN1-1a, mouse GluN2B) (Rattus norvegicus; Mus musculus, UniProt P35439+Q01097, Q01097:Q110G)
T11 construct: gene Grin1; full-length receptors from pcDNA3-based plasmids, Xenopus laevis oocytes, cDNA ratio 1:1; heterotetramer, usually two GluN1 and two GluN2
Description: as §1

T2 sequence (Q01097 27-1482, other chains not shown): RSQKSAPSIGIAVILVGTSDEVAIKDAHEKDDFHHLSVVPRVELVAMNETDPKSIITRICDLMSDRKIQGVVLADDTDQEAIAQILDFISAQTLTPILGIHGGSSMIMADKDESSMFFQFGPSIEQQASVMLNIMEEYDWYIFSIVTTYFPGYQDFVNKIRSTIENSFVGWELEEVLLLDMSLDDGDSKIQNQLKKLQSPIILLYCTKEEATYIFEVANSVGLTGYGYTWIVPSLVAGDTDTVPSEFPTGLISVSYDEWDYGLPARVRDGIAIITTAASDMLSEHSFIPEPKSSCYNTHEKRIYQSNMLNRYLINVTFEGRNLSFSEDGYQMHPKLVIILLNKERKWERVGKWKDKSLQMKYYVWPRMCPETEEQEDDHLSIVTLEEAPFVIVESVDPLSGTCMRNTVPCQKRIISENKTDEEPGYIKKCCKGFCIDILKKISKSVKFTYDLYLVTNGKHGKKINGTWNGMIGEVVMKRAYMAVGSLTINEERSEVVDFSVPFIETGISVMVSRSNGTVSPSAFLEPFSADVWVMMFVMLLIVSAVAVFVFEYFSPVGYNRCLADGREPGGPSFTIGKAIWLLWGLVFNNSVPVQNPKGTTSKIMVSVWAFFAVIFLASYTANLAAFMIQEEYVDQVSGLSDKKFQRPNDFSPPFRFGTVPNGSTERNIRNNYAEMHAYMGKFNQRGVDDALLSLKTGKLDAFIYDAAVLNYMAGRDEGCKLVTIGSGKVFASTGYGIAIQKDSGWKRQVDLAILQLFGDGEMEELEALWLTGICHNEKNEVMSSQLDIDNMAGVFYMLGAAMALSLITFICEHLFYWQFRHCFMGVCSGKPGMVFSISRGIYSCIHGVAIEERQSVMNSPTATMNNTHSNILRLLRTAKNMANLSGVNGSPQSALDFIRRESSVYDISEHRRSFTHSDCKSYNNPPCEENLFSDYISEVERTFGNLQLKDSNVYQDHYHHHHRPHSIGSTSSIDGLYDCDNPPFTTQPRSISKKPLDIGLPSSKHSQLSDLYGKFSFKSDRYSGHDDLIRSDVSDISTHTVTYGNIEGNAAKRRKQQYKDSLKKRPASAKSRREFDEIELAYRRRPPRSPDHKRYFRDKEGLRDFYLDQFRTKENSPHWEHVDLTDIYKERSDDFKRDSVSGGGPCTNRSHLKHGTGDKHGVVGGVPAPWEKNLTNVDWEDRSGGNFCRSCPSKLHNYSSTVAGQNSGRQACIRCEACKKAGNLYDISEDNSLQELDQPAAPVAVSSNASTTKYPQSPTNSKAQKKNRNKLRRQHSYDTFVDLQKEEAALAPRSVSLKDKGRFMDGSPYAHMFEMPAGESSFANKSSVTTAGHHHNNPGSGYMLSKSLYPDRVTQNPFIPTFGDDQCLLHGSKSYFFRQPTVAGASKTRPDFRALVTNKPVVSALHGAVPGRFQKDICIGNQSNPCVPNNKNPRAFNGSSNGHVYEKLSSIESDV
T3 sequence (Q01097 27-1482, other chains not shown): as above
T5 sequence (Q01097 27-1482, other chains not shown): as above

With `Cc1nccn1Cc1cc(-c2ccc(F)c(C(F)F)c2)cnn1` [compound 1, 5-(3-(difluoromethyl)-4-fluorophenyl)-3-((2-methyl-1H-imidazol-1-yl)methyl)pyridazine] the IC50 [1] was 12 ± 0.2 nM, the IC50 [2] was 71 ± 7 nM and the IC50 [3] was 9 ± 1 nM. The IC50 [4] was 7300 ± 260 nM, the IC50 [5] was 9620 ± 700 nM and the IC50 [6] was 72 ± 7 nM. It also gave an IC50 [7] of 404 ± 15 nM, an IC50 [8] of 676 ± 10 nM and an IC50 [9] of 11400 ± 1000 nM. For the same molecule, the IC50 [10] was 75 ± 12 nM and the IC50 [11] was 502 ± 14 nM.

From PMC4859819 (Molecular Pharmacology, 2016)
